This passage reports K0.5 and half-life results from ChEMBL document CHEMBL3044583, “Mechanisms and Issues Relating to the Use of D1-like Dopamine Receptor Agonists for Age-related Illnesses: Parkinson?s Disease and Memory and Cognition” (Med Chem Res, 2004).

Molecules are shown by their SMILES.

Data set [1] has as its target D(1A) dopamine receptor (Homo sapiens) (UniProt P21728). As to the kind of experiment: Binding affinity to dopamine D1 receptor (unknown origin).
Data set [2] has as its target D(1A) dopamine receptor (Rattus norvegicus) (UniProt P18901).
Description: Binding affinity to dopamine D1 receptor in Rattus norvegicus (rat) brain
Data set [3] can be described thus: Half life in Rattus norvegicus (rat) plasma. Type of data set: ADME, cell-free.

Chain of D(1A) dopamine receptor (Homo sapiens) (P21728 whole entry): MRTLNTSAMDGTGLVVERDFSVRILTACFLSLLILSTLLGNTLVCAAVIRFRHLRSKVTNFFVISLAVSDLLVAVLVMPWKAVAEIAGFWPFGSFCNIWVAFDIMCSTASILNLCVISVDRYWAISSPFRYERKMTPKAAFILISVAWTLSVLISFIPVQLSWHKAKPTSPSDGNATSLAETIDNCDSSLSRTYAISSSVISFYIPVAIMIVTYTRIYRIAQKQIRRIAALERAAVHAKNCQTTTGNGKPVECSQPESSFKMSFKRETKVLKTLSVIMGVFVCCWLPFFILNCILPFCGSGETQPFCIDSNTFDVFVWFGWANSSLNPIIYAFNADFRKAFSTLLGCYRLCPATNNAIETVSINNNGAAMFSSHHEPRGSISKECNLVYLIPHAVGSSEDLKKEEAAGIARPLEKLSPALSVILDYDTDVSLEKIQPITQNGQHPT
Chain of D(1A) dopamine receptor (Rattus norvegicus) (P18901 whole entry): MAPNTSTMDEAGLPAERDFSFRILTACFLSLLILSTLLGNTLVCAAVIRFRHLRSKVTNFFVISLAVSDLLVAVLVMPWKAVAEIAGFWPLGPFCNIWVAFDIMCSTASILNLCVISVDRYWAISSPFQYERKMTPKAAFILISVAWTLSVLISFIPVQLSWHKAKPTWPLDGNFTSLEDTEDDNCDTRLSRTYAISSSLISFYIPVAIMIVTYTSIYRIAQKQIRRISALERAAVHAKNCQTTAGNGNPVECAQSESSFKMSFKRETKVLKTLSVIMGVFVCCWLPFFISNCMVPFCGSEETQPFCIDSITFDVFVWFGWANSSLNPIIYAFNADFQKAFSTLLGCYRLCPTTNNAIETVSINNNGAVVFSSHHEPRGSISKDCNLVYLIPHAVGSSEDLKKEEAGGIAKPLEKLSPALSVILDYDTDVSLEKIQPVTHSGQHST

On to `NC[C@@H]1O[C@H](C23CC4CC(CC(C4)C2)C3)Cc2c1ccc(O)c2O`, for which the K0.5 in data set [1] was found to be 1 nM. In turn, `Oc1cc2c(cc1O)[C@H]1c3ccccc3CN[C@@H]1CC2` gave a K0.5 in data set [2] of 5 nM. Molecule `NC[C@@H]1O[C@H](c2ccccc2)Cc2c1ccc(O)c2O` (relative stereo) had a K0.5 in data set [1] of 1 nM.

Turning to `CCCc1cc2c(s1)CN[C@@H]1CCc3cc(O)c(O)cc3[C@@H]21` (relative stereo), the K0.5 in data set [1] stood at 1 nM. Turning to `CCCc1cc2c(s1)CN[C@@H]1CCc3cc(OC(C)=O)c(OC(C)=O)cc3[C@@H]21.Cl` (relative stereo) [ADROGOLIDE HYDROCHLORIDE], the half-life (as a rule, the time needed for the level to fall by half in the phase considered) in data set [3] amounted to 1 min.
